# Biological target: T1, His6-PDK1(Δ1-50) (Homo sapiens, UniProt O15530)
# T1 construct: His6 (N)
# T1 sequence (O15530 51-556): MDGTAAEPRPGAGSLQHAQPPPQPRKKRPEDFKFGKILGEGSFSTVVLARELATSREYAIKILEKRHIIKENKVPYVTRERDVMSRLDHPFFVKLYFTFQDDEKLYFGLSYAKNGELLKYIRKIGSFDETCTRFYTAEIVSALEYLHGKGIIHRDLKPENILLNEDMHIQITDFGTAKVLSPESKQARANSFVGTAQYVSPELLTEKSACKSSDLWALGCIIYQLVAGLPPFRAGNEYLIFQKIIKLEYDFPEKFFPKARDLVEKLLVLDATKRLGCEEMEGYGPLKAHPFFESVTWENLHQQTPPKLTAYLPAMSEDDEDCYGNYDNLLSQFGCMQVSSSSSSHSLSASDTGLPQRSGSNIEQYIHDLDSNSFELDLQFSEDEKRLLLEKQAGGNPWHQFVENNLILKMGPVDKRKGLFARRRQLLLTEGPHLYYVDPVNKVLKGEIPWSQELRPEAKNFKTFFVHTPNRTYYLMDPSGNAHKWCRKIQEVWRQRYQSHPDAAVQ
# Assay: Inhibition of PDK1 (IC50), 384-well flashplate kinase assay
# Assay type: biochemical
# Details: 4 μM ATP, 400 nM PDKtide, second part of Table 1 (compounds 32-124)
# Protocol: Inhibition of PDK1 (IC50)
# The kinase assay can be carried out as a 384-well flashplate assay. 3.4 nM His6-PDK1(Δ1-50), 400 nM PDKtide (biotin-bA-bA-[…]) and 4 μM ATP (with 0.2 μCi of 33P-ATP/well) are incubated at […] for 60 min in a total volume of 50 μl (50 mM TRIS, 10 mM Mg acetate, 0.1% of mercaptoethanol, 0.02% of Brij35, 0.1% of BSA, pH 7.5) with or without test substance (5-10 concentrations). The reaction is stopped using 25 μl of 200 mM EDTA solution, filtered with suction after 30 min at room temperature, and the wells are washed with 3 times 100 μl of 0.9% NaCl solution. The nonspecific content of the kinase reaction (blank) is determined using 100 nM staurosporine. Radioactivity is measured using a Topcount scintillation counter (PerkinElmer, USA). IC50 values are calculated using the RS1 computer program.
row,SMILES,IC50 [nM]
1,CC(C)Cn1cc(-c2ccc3c(c2)NC(=O)c2cnc(N(C)C4CCN(C)CC4)nc2N3)cn1 [Compound 70],110
2,CN(c1ncc2c(n1)Nc1ccc(C(C)(C)C)cc1NC2=O)C1CCNCC1 [Compound 71],430
3,Cc1cc2c(cc1C)Nc1nc(N(C)C3CCN(C(=O)CCN(C)C)CC3)ncc1C(=O)N2 [Compound 72],8100
4,Cc1cc2c(cc1C)Nc1nc(N(C)C3CCN(CCN(C)C)CC3)ncc1C(=O)N2 [Compound 73],3900
5,Cc1cc2c(cc1C)Nc1nc(N(C)C3CCNCC3)ncc1C(=O)N2 [Compound 74],320
6,CC(C)NC(=O)Nc1ccc2c(c1)Nc1nc(N(C)C3CCN(C)CC3)ncc1C(=O)N2 [Compound 75],960
7,CCNC(=O)Nc1ccc2c(c1)Nc1nc(N(C)C3CCN(C)CC3)ncc1C(=O)N2 [Compound 76],1300
8,CCC(C)NC(=O)Nc1ccc2c(c1)Nc1nc(N(C)C3CCN(C)CC3)ncc1C(=O)N2 (centres unmarked) [Compound 77],940
9,CN1CCC(N(C)c2ncc3c(n2)Nc2ccc(NC(=O)NC4CCCC4)cc2NC3=O)CC1 [Compound 78],150
10,CC(C)NC(=O)Nc1cccc2c1Nc1nc(N(C)C3CCN(C)CC3)ncc1C(=O)N2 [Compound 79],6000
11,CN1CCC(N(C)c2ncc3c(n2)Nc2ccc(N)cc2NC3=O)CC1 [Compound 80],190
12,CCCNC(=O)Nc1ccc2c(c1)Nc1nc(N(C)C3CCN(C)CC3)ncc1C(=O)N2 [Compound 81],420
13,CN1CCC(N(C)c2ncc3c(n2)Nc2cc(NC(=O)NC4CCCCC4)ccc2NC3=O)CC1 [Compound 82],750
14,CN1CCC(N(C)c2ncc3c(n2)Nc2ccc(NC(=O)NC(C)(C)C)cc2NC3=O)CC1 [Compound 83],200
15,CN1CCC(N(C)c2ncc3c(n2)Nc2c(NC(=O)NC(C)(C)C)cccc2NC3=O)CC1 [Compound 84],5500
16,CCNC(=O)Nc1ccc2c(c1)NC(=O)c1cnc(N(C)C3CCN(C)CC3)nc1N2 [Compound 85],280
17,CCCNC(=O)Nc1ccc2c(c1)NC(=O)c1cnc(N(C)C3CCN(C)CC3)nc1N2 [Compound 86],280
18,CCC(C)NC(=O)Nc1ccc2c(c1)NC(=O)c1cnc(N(C)C3CCN(C)CC3)nc1N2 (centres unmarked) [Compound 87],230
19,CN1CCC(N(C)c2ncc3c(n2)Nc2ccc(NC(=O)NC4CCCCC4)cc2NC3=O)CC1 [Compound 88],150
20,CN1CCC(N(C)c2ncc3c(n2)Nc2ccc(NC(=O)Nc4cccs4)cc2NC3=O)CC1 [Compound 89],200
21,CN1CCC(N(C)c2ncc3c(n2)Nc2cc(NC(=O)Nc4cccs4)ccc2NC3=O)CC1 [Compound 90],290
22,CCC(C)NC(=O)Nc1cccc2c1Nc1nc(N(C)C3CCN(C)CC3)ncc1C(=O)N2 (centres unmarked) [Compound 92],7800
23,CN1CCC(N(C)c2ncc3c(n2)Nc2c(NC(=O)NC4CCCCC4)cccc2NC3=O)CC1 [Compound 93],3500
24,CN1CCC(N(C)c2ncc3c(n2)Nc2cc(NC(=O)Nc4ccsc4)ccc2NC3=O)CC1 [Compound 94],160
25,Cc1noc(C)c1NC(=O)Nc1ccc2c(c1)Nc1nc(N(C)C3CCN(C)CC3)ncc1C(=O)N2 [Compound 95],950
26,CN1CCC(N(C)c2ncc3c(n2)Nc2ccc(NC(=O)Nc4ccsc4)cc2NC3=O)CC1 [Compound 99],120
27,Cc1noc(C)c1NC(=O)Nc1ccc2c(c1)NC(=O)c1cnc(N(C)C3CCN(C)CC3)nc1N2 [Compound 100],220
28,CN1CCC(N(C)c2ncc3c(n2)Nc2c(NC(=O)Nc4ccsc4)cccc2NC3=O)CC1 [Compound 101],340
29,Cc1noc(C)c1NC(=O)Nc1cccc2c1Nc1nc(N(C)C3CCN(C)CC3)ncc1C(=O)N2 [Compound 102],3400
